{
  "source": "patent US10968222B2",
  "about": "“2-azabicyclo hexane JAK inhibitor compound” (THERAVANCE BIOPHARMA R&D IP, LLC, priority 2018, dated 2021)",
  "key": {"[1]": {"tested_on": "IL-2/anti-CD3 stimulated STAT5 phosphorylation in CD4+ T cells in human PBMCs", "experiment": "Inhibition of IL-2 stimulated pSTAT5 in CD4+ T cells", "assay_type": "cell-based", "conditions": "0.5 h, 30 min stimulation, flow cytometry, read-out: pIC50, inhibition of IL-2 stimulated pSTAT5 in CD4+ T cells (converted)", "experimental": "The potency of the test compound for inhibition of interleukin-2 (IL-2)/anti-CD3 stimulated STAT5 phosphorylation was measured in CD4-positive (CD4+) T cells in human peripheral blood mononuclear cells (PBMCs) isolated from human whole blood (Stanford Blood Center) using flow cytometry. Because IL-2 signals through JAK, this assay provides a measure of JAK cellular potency.\nCD4+ T cells were identified using a […] (PE) conjugated anti-CD4 antibody (Clone RPA-T4, BD Biosciences), while an Alexa Fluor 647 conjugated anti-pSTAT5 antibody (pY694, Clone 47, BD Biosciences) was used to detect STAT5 phosphorylation. […]\n(2) After cytokine stimulation, cells were fixed with pre warmed fix solution (200 μL; BD Biosciences) for 10 min at 37° C., 5% CO2, washed twice with DPBS buffer (1 mL, Life Technologies), and resuspended in ice cold Perm Buffer III (1000 μL, BD Biosciences) for 30 min at 4° C. […] After incubation, cells were washed twice in FACS buffer before being analyzed using a LSRII flow cytometer (BD Biosciences). To determine the inhibitory potency of the test compound in response to IL-2/anti-CD3, the median fluorescent intensity (MFI) of pSTAT5 was measured in CD4+ T cells. IC50 values were determined from analysis of the inhibition curves of MFI vs compound concentration.\nData are expressed as pIC50 (negative decadic logarithm IC50) values."}, "[2]": {"biological_target": "T1, KIT (Homo sapiens, UniProt P10721)", "T1 construct": "made in house; host or cells: E. coli BL21-derived host (T7 phage) or HEK-293 cells", "T1 sequence (P10721 26-976)": "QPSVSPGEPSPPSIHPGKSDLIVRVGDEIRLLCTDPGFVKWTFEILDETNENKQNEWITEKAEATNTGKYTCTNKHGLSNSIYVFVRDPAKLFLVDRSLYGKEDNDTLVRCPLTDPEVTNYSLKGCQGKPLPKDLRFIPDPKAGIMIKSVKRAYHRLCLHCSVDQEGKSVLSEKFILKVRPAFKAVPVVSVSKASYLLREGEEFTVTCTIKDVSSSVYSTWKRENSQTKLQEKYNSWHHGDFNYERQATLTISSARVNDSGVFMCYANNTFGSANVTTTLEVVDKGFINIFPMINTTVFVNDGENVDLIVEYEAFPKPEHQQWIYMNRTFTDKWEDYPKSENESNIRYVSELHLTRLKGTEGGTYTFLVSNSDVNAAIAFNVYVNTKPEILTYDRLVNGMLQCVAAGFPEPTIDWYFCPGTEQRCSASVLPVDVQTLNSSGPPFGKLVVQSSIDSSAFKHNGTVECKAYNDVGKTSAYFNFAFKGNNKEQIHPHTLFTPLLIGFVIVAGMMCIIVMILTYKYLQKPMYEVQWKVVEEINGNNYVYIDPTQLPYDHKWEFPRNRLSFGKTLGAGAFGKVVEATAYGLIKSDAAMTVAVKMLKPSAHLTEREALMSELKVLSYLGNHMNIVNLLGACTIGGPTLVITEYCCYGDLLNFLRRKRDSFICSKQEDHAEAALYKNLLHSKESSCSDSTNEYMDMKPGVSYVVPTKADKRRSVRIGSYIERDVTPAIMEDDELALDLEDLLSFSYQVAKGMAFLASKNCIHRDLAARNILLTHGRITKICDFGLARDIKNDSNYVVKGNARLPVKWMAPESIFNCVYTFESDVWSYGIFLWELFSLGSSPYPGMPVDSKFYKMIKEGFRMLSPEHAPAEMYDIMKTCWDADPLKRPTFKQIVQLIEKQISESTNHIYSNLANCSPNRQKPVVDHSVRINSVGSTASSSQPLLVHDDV", "experiment": "Kinome screen, KIT", "assay_type": "binding", "conditions": "screened at 1 μM", "experimental": "(§1) Compounds 1 and C-1 were screened against other kinases to evaluate their selectivity profile.\n(§2) Kinase-tagged T7 phage strains were grown in parallel in 24-well blocks in an E. coli host derived from the BL21 strain. E. coli were grown to log-phase and infected with T7 phage from a frozen stock (multiplicity of infection=0.4) and incubated with shaking at 32° C. until lysis (90-150 minutes). The lysates were centrifuged (6,000×g) and filtered (0.2 μm) to remove cell debris. The remaining kinases were produced in HEK-293 cells and subsequently tagged with DNA for qPCR detection.\n(§3) Streptavidin-coated magnetic beads were treated with biotinylated small molecule ligands for 30 minutes at room temperature to generate affinity resins for kinase assays. The liganded beads were blocked with excess biotin and washed with blocking buffer (SeaBlock (Pierce), 1% BSA, 0.05% Tween 20, 1 mM DTT) to remove unbound ligand and to reduce non-specific phage binding. Binding reactions were assembled by combining kinases, liganded affinity beads, and test compounds in 1× binding buffer (20% SeaBlock, 0.17×PBS, 0.05% Tween 20, 6 mM DTT). Test compounds were prepared as 40× stocks in 100% DMSO and directly diluted into the assay. All reactions were performed in polypropylene 384-well plates in a final volume of 0.04 ml. […] The kinase concentration in the eluates was measured by qPCR. […]"}, "[3]": {"tested_on": "IL-2 stimulated STAT5 phosphorylation in Tall-1 human T cell line", "experiment": "Inhibition of IL-2 stimulated pSTAT5 in Tall-1 T cells", "assay_type": "cell-based", "conditions": "AlphaLisa, read-out: pIC50, inhibition of IL-2 stimulated pSTAT5 (converted)", "experimental": "The potency of test compounds for inhibition of interleukin-2 (IL-2) stimulated STAT5 phosphorylation was measured in the Tall-1 human T cell line (DSMZ) using AlphaLisa. Because IL-2 signals through JAK1/3, this assay provides a measure of JAK1/3 cellular potency.\nPhosphorylated STAT5 was measured via the AlphaLISA SureFire Ultra pSTAT5 (Tyr694/699) kit (PerkinElmer). Human T cells from the Tall-1 cell line were cultured in a 37° C., 5% CO2 humidified incubator in RPMI (Life Technologies) supplemented with 15% Heat Inactivated Fetal Bovine Serum (FBS, Life Technologies), 2 mM Glutamax (Life Technologies), 25 mM HEPES (Life Technologies) and 1× Pen/Strep (Life Technologies). Compounds were serially diluted in DMSO and dispensed acoustically to empty wells. […] Phosphorylated STAT5 was measured via the pSTAT5 AlphaLisa kit (PerkinElmer). […] Luminescence was measured with excitation at 689 nm and emission at 570 nm using an EnVision plate r reader (PerkinElmer) under green filtered <100 lux light.\nTo determine the inhibitory potency of test compounds in response to IL-2, the average emission intensity of beads bound to pSTAT5 was measured in a human T cell line. IC50 values were determined from analysis of the inhibition curves of signal intensity versus compound concentration. Data are expressed as pIC50 (negative decadic logarithm IC50) values (mean±standard deviation)."}, "[4]": {"biological_target": "T2, CDK2 (Homo sapiens, UniProt P24941)", "T2 construct": "made in house; host or cells: E. coli BL21-derived host (T7 phage) or HEK-293 cells", "experiment": "Kinome screen, CDK2", "assay_type": "binding", "conditions": "screened at 1 μM", "experimental": "as §1, §2, §3"}, "[5]": {"biological_target": "T3, CDK9 (Homo sapiens, UniProt P50750)", "T3 construct": "made in house; host or cells: E. coli BL21-derived host (T7 phage) or HEK-293 cells", "T3 sequence (P50750 whole entry)": "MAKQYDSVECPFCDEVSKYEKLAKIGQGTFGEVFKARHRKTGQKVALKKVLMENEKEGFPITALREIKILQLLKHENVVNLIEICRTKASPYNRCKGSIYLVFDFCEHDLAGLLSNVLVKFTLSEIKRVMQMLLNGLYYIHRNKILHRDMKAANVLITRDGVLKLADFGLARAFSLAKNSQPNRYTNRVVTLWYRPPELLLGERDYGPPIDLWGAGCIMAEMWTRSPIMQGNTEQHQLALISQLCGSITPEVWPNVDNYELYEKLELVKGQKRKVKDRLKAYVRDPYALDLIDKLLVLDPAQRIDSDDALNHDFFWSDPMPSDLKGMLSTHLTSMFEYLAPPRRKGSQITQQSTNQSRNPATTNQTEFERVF", "experiment": "Kinome screen, CDK9", "assay_type": "binding", "conditions": "screened at 1 μM", "experimental": "as §1, §2, §3"}, "[6]": {"biological_target": "T4, PAK4 (Homo sapiens, UniProt O96013)", "T4 construct": "made in house; host or cells: E. coli BL21-derived host (T7 phage) or HEK-293 cells", "T4 sequence (O96013 whole entry)": "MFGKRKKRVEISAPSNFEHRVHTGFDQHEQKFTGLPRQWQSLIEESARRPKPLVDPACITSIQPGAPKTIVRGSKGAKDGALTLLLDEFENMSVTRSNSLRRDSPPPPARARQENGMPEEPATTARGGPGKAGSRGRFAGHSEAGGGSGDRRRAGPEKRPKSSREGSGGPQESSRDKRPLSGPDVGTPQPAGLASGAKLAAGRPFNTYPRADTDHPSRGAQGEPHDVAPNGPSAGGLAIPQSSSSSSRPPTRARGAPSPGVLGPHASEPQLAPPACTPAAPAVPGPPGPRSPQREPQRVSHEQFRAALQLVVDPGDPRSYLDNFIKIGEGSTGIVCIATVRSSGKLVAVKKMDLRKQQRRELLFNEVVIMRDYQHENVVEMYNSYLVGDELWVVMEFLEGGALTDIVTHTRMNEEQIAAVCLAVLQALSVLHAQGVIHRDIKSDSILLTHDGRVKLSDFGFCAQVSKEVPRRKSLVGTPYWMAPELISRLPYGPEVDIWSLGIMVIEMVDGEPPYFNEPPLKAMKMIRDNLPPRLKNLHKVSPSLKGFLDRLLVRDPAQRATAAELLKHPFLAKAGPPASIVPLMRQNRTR", "experiment": "Kinome screen, PAK4", "assay_type": "binding", "conditions": "screened at 1 μM", "experimental": "as §1, §2, §3"}},
  "data": [
    {"molecule": "CCc1cc(O)c(F)cc1-c1cc(F)c2c(-c3nc4c([nH]3)CCN(C(=O)[C@]35C[C@H]3CCN5)C4)n[nH]c2c1", "note": "[Compound 1, (1S,5R)-2-azabicyclo[3.1.0]hexan-1-yl(2-(6-(2-ethyl-5-fluoro-4-hydroxyphenyl)-4-fluoro-1H-indazol-3-yl)-6,7-dihydro-3H-imidazo[4,5-c]pyridin-5(4H)-yl)methanone]", "values": [
      {"measurement": "IC50", "setting": "[1]", "result": 20, "unit": "nM"},
      {"measurement": "inhibition at 1 µM", "setting": "[2]", "result": 83, "unit": "%"},
      {"measurement": "IC50", "setting": "[3]", "result": 15.8, "unit": "nM"},
      {"measurement": "inhibition at 1 µM", "setting": "[4]", "result": 1, "unit": "%"},
      {"measurement": "inhibition at 1 µM", "setting": "[5]", "result": 13, "unit": "%"},
      {"measurement": "inhibition at 1 µM", "setting": "[6]", "result": 41, "unit": "%"}
    ]}
  ]
}
